{"source": "patent US7157092B1", "about": "“Acyl pseudodipeptides, preparation method and pharmaceutical compositions containing same” (Om Pharma, priority 1998, dated 2007)", "key": {"[1]": {"system": "Pb CS His6-242-310 antigen", "experiment": "Murine immunization with Pb CS His6-242-310 peptide: specific antibody titer (ELISA)", "format": "in vivo, BALB/c mice", "details": "0.05 mg adjuvant + 0.02 mg antigen s.c.; for serological response following three shots: ELISA 2 weeks after third shot, FIG. 15; for anti-Pb CS His6-242-310 antibody titer after one single shot: ELISA 3 weeks after first shot, FIG. 13; for serological response after two shots: ELISA 4 weeks after second shot, FIG. 14", "description": "Antigen: Pb CS([…] Chem., 8: (1979) 350–341).\nSerum sampling: Blood sampling is conducted at weeks 0, 3, 7 and 9. Blood is allowed to stand for 6 min. at 37° C., then is kept overnight at 4° C. Serum is subsequently frozen at −80° C. until time of antibody assay.\nAssay of antibodies specifically raised against Pb Cs His6 242-310 antigen is performed by ELISA. Binding of antigen is done in 96-well microtiter plates (Maxisorp F96, Nunc, DK) by conducting overnight incubation in a moist chamber at 4° C. with each well containing 0.1 ml of PBS (phosphate buffered saline) containing 0.001 mg/ml of Pb CS His6242-310 antigen. Blocking of the microtiter plate is performed with PBS containing 1% of bovine serum albumin (BSA, Fluka, Switzerland). Plates are washed with PBS containing 0.05% Tween 20 (Sigma, St. Louis, Mo., USA). Serum samples collected at 0, 3, 7 and 9 weeks are serially diluted with dilution buffer (PBS containing 2.5% of skimmed milk powder and 0.05% of Tween 20), then transferred into a microtiter plate and allowed to stand for 1 hr. at room temperature (RT). Plates are then washed with PBS, a diluted solution containing mouse polyclonal anti-immunoglobulin coupled to alkaline phosphatase (Sigma, St. Louis, Mo., USA) is then dispensed into those plates and incubated for 1 hr. at RT. […] Absorbance at 405 nm is read with a microtiter plate reader (Dynatech 25000 ELISA reader, Ashford, Middlesex, UK), each serum sample is measured in duplicate. Results stand for the mean of all measurements relating to mice in each group."}, "[2]": {"system": "LmCPb antigen", "format": "in vivo, CBA mice", "details": "2 injections LmCPb with adjuvant"}, "[3]": {"system": "ovalbumin", "experiment": "Subcutaneous immunization with ovalbumin antigen: specific serum immunoglobulins (ELISA)", "format": "in vivo, BALB/c mice", "details": "for adjuvant effect on titer of antibodies specifically raised against ovalbumin: IgG1 and IgG2a subclasses, after one or two injections, FIGS. 25-27; for Immunoglobulins specifically raised against ovalbumin of IgG1 subclass / Immunoglobulins specifically raised against ovalbumin of IgG2a subclass / Immunoglobulins specifically raised against ovalbumin of IgM subclass: s.c. injections days 0 and 14, ovalbumin 50 μg, adjuvant 50 μg per injection, ± SD", "description": "To this end, 50 BALB/c mice (females, aged 8 weeks at the beginning of treatment) were divided into 5 groups as follows:\nAntigen: An ovalbumin stock solution is prepared at a concentration of 0.5 mg/ml in 0.9% NaCl.\nThe negative control consists of a 0.9% NaCl solution without antigen.\nAntigen-Adjuvant mixture: Adjuvants are allowed to stand for 20 minutes at 37° C. before vortex treatment for 3 minutes. Then the antigen and (0.9%) NaCl are added as specified in the above Table, and the antigen/adjuvant mixture is vortexed briefly before placing it on a rotary stirrer for 15 minutes at room temperature, then the whole mixture is vortexed for 3 minutes.\nImmunization regimen: Injections are scheduelled on days 0 and 14. The mixtures stated in the preceeding table are administered by subcutaeous route (75 μl on the side, 150 μl in total per animal). Blood sampling is scheduelled on days 14 and 28 (orbital puncture).\nAssay for anti-ovalbumin immunoglobulins: The following serum Immunolglobulins which are specifically directed against ovalbumin are assayed in duplicate by ELISA: IgG1, IgG2a, and IgM. Briefly stated, microtiter plates (NUNC Immunoplate, Roskilde, DK) are incubated (overnight coating) at 40C together with 100 μl ovalbumin (0.5 μg) in bicarbonate buffer pH 9.6). After washing with 0.5% Tween-20 (Merck Hohenbrunn, D), sera are diluted 50-, 200- and 800-fold (diluting solution: phosphate buffered saline (PBS)+1% bovine serum albumin (BSA, Sigma, St. Louis, Mo., USA)+0.02% Tween-20)). 100 μl of each dilute serum sample are added to the wells. Incubation lasts 45 minutes at 37° C.\nAfter a second washing step, IgG1, IgG2a and IgM specifically directed to ovalbumin are incubated for 30 minutes at 37° C. together with 100 μl of anti-IgG1 antibodies (anti-mouse rat antibody)-peroxydase conjugate (Serotec, Oxford, UK), IgG2a-peroxydase conjugate (Pharmingen, San Diego, Calif., USA) and IgM-biotin conjugate (Pharmingen, San Diego, Calif., USA), diluted beforehand in PBS/BSA/Tween buffer (250-, 1000-, 500-fold dilutions, respectively). For IgM, after an extra washing step, a 3rd incubation step is required (30 min. at 37° C.) with a 1:100 dilute solution of streptavidin-peroxydase conjugate (Dako, Glostrup, DK).\nAfter the washing step, 100 μl of a phenylene 1,2-diamine solution (OPD, Merck, Darmstadt, GFR) are added to detect peroxydase-coupled anti-IgG1 and anti-IgG2 secondary antibodies (whereas for IgM, the reagent being used is 3′, 3′, 5′,5′-tetramethylbenzidine (TMB, Sigma, St. Louis, Mo., USA). After a 20 minute incubation period at room temperature, the reaction is stopped by adding 100 μl of 2N H2SO4. Absorbance values are read at 490 nm with a Bio-Rad 3550 model plate reader\nResults of each reading at 490 nm are given in arbitrary units (A.U.) per ml. This is achieved by comparing each sample with a standard prepared from different dilutions of a sample pool collected from group B at day 28 (animals injected with ovalbumin alone). As clearly understood by this term, the sample pool diluted 50-fold is at a concentration of 1000 A.U./ml. Individual results are then corrected for the corresponding dilution factor (50, 200, or 800 times). Only the mean values of each group and the standard deviation (SD) are herein reported."}, "[4]": {"experiment": "Weight change in rats of the peritoneal carcinoma study", "format": "in vivo, BDIX rats"}, "[5]": {"system": "monocytes and DC-6 cells", "experiment": "IL-12 p70 production by monocytes and DC-6 cells (ELISA)", "details": "10 μg/ml, in presence of γ IFN; FIGS. 11, 12"}, "[6]": {"system": "predendritic cells (DC-6)", "details": "DC-9 stage"}, "[7]": {"details": "in vitro: Amastigotes 17 × 10^−6/ml"}}, "note": "Several values for one entry are separate records, joined by “and”; a condition that tells them apart may be missing. Equal entries are not always repeated. Where two headings read alike, the source gives them in different places.", "data": [{"smiles": "CCCCCCCCCCCC(=O)O[C@H](CCCCCCCCCCC)CC(=O)NC(CCOP(=O)(O)O)C(=O)NCCCC(COP(=O)(O)O)NC(=O)C[C@H](O)CCCCCCCCCCC", "note": "(stereo partly drawn) [OM-294-DP, 3-[(R)-3-dodecanoyloxytetradecanoylamino]-4-oxo-5-aza-9-[(R)-3-hydroxytetradecanoylamino]decan-1,10-diol 1, 10-bis(dihydrogenphosphate)]", "values": [{"measurement": "serological response following three shots", "setting": "[1]", "result": "greater than that of IFA"}, {"measurement": "anti-Pb CS His6-242-310 antibody titer after one single shot", "setting": "[1]", "result": "almost as high as the response observed with Incomplete Freund's Adjuvant (IFA)"}, {"measurement": "serological response after two shots", "setting": "[1]", "result": "greater than that of IFA"}, {"measurement": "IL-4 concentration", "setting": "[2]; [7]", "result": "130 pg/mL and 110 pg/mL"}, {"measurement": "γ IFN concentration", "setting": "[2]; [7]", "result": ">600", "unit": "pg/mL"}, {"measurement": "γ IFN concentration", "setting": "[2]; in vitro: Con A 5 μg/ml", "result": "1200 pg/mL and 1900 pg/mL"}, {"measurement": "IL-4 concentration", "setting": "[2]; in vitro: LmCPb 15 μg/ml", "result": "110 pg/mL and 88 pg/mL"}, {"measurement": "γ IFN concentration", "setting": "[2]; in vitro: LmCPb 15 μg/ml", "result": "520 pg/mL and 360 pg/mL"}, {"measurement": "IL-4 concentration", "setting": "[2]; in vitro: No stimulant", "result": "<8", "unit": "pg/mL"}, {"measurement": "γ IFN concentration", "setting": "[2]; in vitro: No stimulant", "result": "460 pg/mL and 240 pg/mL"}, {"measurement": "adjuvant effect on titer of antibodies specifically raised against ovalbumin", "setting": "[3]", "result": "significantly increase"}, {"measurement": "Weight of rats (mean ± standard deviation)", "setting": "[4]; Day 0", "result": "277 ± 19"}, {"measurement": "Weight of rats (mean ± standard deviation)", "setting": "[4]; Day 13", "result": "310 ± 21"}, {"measurement": "Weight of rats (mean ± standard deviation)", "setting": "[4]; Day 20", "result": "304 ± 23"}, {"measurement": "Weight of rats (mean ± standard deviation)", "setting": "[4]; Day 29", "result": "317 ± 24"}, {"measurement": "Weight of rats (mean ± standard deviation)", "setting": "[4]; Day 41", "result": "327 ± 26"}, {"measurement": "effect on weight change in comparison to NaCl alone", "setting": "[4]; rat, in vivo", "result": "no significant effect on weight change"}]}, {"smiles": "CCCCCCCCCCCC(=O)O[C@H](CCCCCCCCCCC)CC(=O)NC(CCOP(=O)(O)O)C(=O)NCCCC(CO)NC(=O)C[C@H](O)CCCCCCCCCCC", "note": "(stereo partly drawn) [OM-294-MP, 3-[(R)-3-dodecanoyloxytetradecanoylamino]-4-oxo-5-aza-9-[(R)-3-hydroxytetradecanoylamino]-decane-1,10-diol 1-dihydrogenphosphate]", "values": [{"measurement": "serological response following three shots", "setting": "[1]", "result": "greater than that of IFA"}, {"measurement": "anti-Pb CS His6-242-310 antibody titer after one single shot", "setting": "[1]", "result": "almost as high as the response observed with Incomplete Freund's Adjuvant (IFA)"}, {"measurement": "serological response after two shots", "setting": "[1]", "result": "greater than that of IFA"}, {"measurement": "IL-12 p70 production in monocytes and DC-6 cells", "setting": "[5]", "result": "induced in presence of γ IFN"}, {"measurement": "Immunoglobulins specifically raised against ovalbumin of IgG1 subclass", "setting": "[3]; Day 14", "result": "19 ± 8", "unit": "Arbitrary units/ml"}, {"measurement": "Immunoglobulins specifically raised against ovalbumin of IgG2a subclass", "setting": "[3]; Day 14", "result": "11253 ± 12169", "unit": "Arbitrary units/ml"}, {"measurement": "Immunoglobulins specifically raised against ovalbumin of IgM subclass", "setting": "[3]; Day 14", "result": "19742 ± 5667", "unit": "Arbitrary units/ml"}, {"measurement": "Immunoglobulins specifically raised against ovalbumin of IgG1 subclass", "setting": "[3]; Day 28", "result": "40 ± 69", "unit": "Arbitrary units/ml"}, {"measurement": "Immunoglobulins specifically raised against ovalbumin of IgG2a subclass", "setting": "[3]; Day 28", "result": "4192 ± 2104", "unit": "Arbitrary units/ml"}, {"measurement": "Immunoglobulins specifically raised against ovalbumin of IgM subclass", "setting": "[3]; Day 28", "result": "9827 ± 2021", "unit": "Arbitrary units/ml"}, {"measurement": "adjuvant effect on titer of antibodies specifically raised against ovalbumin", "setting": "[3]", "result": "significantly increase"}, {"measurement": "CD40 expression, % of mean fluorescence based on LPS-induced expression", "setting": "[6]; FIG. 6", "result": 39, "unit": "%"}, {"measurement": "CD86 expression, % of mean fluorescence based on LPS-induced expression", "setting": "[6]; FIG. 7", "result": 77, "unit": "%"}, {"measurement": "CD83 expression, % of mean fluorescence based on LPS-induced expression", "setting": "[6]; FIG. 8", "result": 60, "unit": "%"}, {"measurement": "CD80 expression, % of mean fluorescence based on LPS-induced expression", "setting": "[6]; FIG. 9", "result": 62, "unit": "%"}]}]}
